For orientation: pKa means the negative logarithm of the acid dissociation constant. A high value points to a group that holds its proton tightly.

`Oc1c(Cl)cc(Cl)cc1C[NH+]1CCCCC1` registered a pKa (acidic group) of 5.97.
Still for that read-out and setting: the figure for `O=C(O[C@H]1O[C@@H](C(=O)O)[C@H](O)[C@@H](O)[C@@H]1O)c1ccccc1` is 2.85.
The same measure, in the same setting: under `O=C(O)/C=C/c1cccc([N+](=O)[O-])c1` stands 4.08.
Compound `CC1=C(CC(C)NCC(O)c2ccc(N)cc2)CCC1(C)C` (stereo unspecified) returned a pKa (basic group) of 9.01.
Under “acidic group”, `CC(C)(/C=C/C(=O)O)c1cc([N+](=O)[O-])ccc1O` showed a pKa of 4.26.
In the case of `O=C(c1ccccc1)n1cnc2ccccc21`, under “basic group”, the pKa is 1.8.
With `O=C1NC(=O)[C@@H]2CCC[C@H]12`, for the setting “acidic group”, the pKa is 9.53.
The compound `CC1(C)S[C@H]2[C@@H](NC(=O)Cc3ccc(N)cc3)C(=O)N2[C@@H]1C(=O)[O-]` showed a pKa (basic group) of 4.6.
The same measure, in the same setting: the figure for `Cn1c(=O)c2c(ncn2CC(=O)[O-])n(C)c1=O` is 4.48; for `C[n+]1ccccc1-c1ccccn1` it is 0.31.
Take `CSCC(=O)O`: for the setting “acidic group”, the pKa came out at 3.67.
With `COCC/N=C(\c1ccccc1)C(C)(C)O`, the pKa (basic group) is 5.75.
On the same count and under the same terms, the figure for `CCc1cnc2c(ccc3cccnc32)c1` is 4.98; for `C#CCCCN(C)C` it is 8.88.
On to `Nc1nnnn1-c1ccc(Cl)cc1`, for which the pKa (basic group) came to 0.78.
As to `N#CCCNC(CC(N)=O)C(=O)O` (stereo unspecified), the pKa (acidic group) amounted to 6.46.
Compound `CN(C)c1ncc(-c2ccccc2)s1` registered a pKa (basic group) of 4.89.
The compound `CO` yielded a pKa (acidic group) of 15.5.
Take `c1csc(C2CCCN2)c1` (stereo unspecified): the pKa (basic group) is 9.35.
On to `O=C(O)C1CC[NH2+]C1` (stereo unspecified), for which the pKa (acidic group) was 3.38.
Where the note is “basic group”, `NOCc1ccc([N+](=O)[O-])cc1` gave a pKa of 3.96.
On the same count and under the same terms, under `c1cc([C@@H]2CCCN2)nc([C@@H]2CCCN2)c1` stands 10.1.
`C[n+]1cc(S)cc2ccccc21`: the pKa (acidic group) turned out to be 2.4.
In the case of `CC1CC(/C=C2\CC(C)(C)CN2)=NC1(C)C` (stereo unspecified), for the setting “basic group”, the pKa was 12.1.
Still for that read-out and setting: under `CN(C)C1CC(C)(C)NC(C)(C)C1` stands 10.6.
As for `Cc1ccc(S(=O)(=O)N(CCNCC(=O)[O-])CC(=O)[O-])cc1`, the pKa (acidic group) was 7.83.
As for `CN1CC[NH2+]CC1`, the pKa (basic group) was 5.05.
Compound `Oc1ccc2cccnc2c1` came in with a pKa (acidic group) of 8.85 and a pKa (basic group) of 5.48.
For the setting “acidic group”, `CC1(C)CCC(C(=O)O)=[N+]1[O-]` came in with a pKa of 2.8.
On to `CC1CCCC(C(=O)[O-])N1` (stereo unspecified), for which the pKa (basic group) was 10.4.
For the setting “acidic group”, `Fc1ccc(S)cc1` registered a pKa of 6.35.
Take `Cc1ccc(O)c2[n+]1CCS2`: the pKa (acidic group) worked out at 4.7.
The same measure, in the same setting: the figure for `Oc1cccc2c1-c1ccccc1-2` is 8.64; for `CC(C[NH3+])C(=O)O` (stereo unspecified) it is 3.53.
As for `Cn1cc(N)cn1`, where the note is “basic group”, the pKa amounted to 5.52.
Compound `CC(=O)C(Cc1ccccc1)C(C)=O` registered a pKa (acidic group) of 10.5.
In turn, `CCCCCC(=O)O` yielded a pKa (acidic group) of 4.85.
On the same count and under the same terms, the figure for `CCC1(c2ccccc2)C(=O)NC(=S)NC1=O` is 6.3; for `CC(=O)CCCC(=O)O` it is 4.66.
In the case of `CCC(O)CN(C)CC(O)CC` (stereo unspecified), where the note is “basic group”, the pKa is 9.
Take `COc1cccnn1`: the pKa (basic group) stood at 2.52.
For `CN1c2ccccc2Nc2c(O)cccc21`, under “acidic group”, the pKa came to 9.26.
Regarding `NC(=O)CC(=O)c1ccccn1`, the pKa (basic group) is 8.23.
The compound `CC(=O)N1CS(=O)(=O)C[C@H]1C(=O)O` gave a pKa (acidic group) of 2.23.
Turning to `Cc1ccc(/C=C/C(=O)O)cc1`, the pKa (acidic group) turned out to be 4.56.
The compound `CN(C)Cc1cc([N+](=O)[O-])ccc1[O-]` gave a pKa (basic group) of 9.93.
Same read-out and setting: under `C1=C(c2nc3ccccc3s2)C2CCN1CC2` stands 7.4.
Same read-out and setting: the figure for `O=[N+]([O-])c1ccc2[nH]c(CCl)nc2c1` is 2.21; for `NCCCCc1ccccc1` it is 10.4.
Under “acidic group”, `N#CC(C#N)Cc1ccc(Cl)cc1` displayed a pKa of 11.5.
As to `NC(=O)CCCCc1ccncc1`, the pKa (basic group) was 5.92.
Consider `Oc1ccc2cc(Br)ccc2c1`, for which, under “acidic group”, the pKa turned out to be 9.2.
Still for that read-out and setting: under `Oc1c2c(nn1-c1ccccc1)CCCC2` stands 11.4.
For the compound `O=C1NCCN1`, for the setting “basic group”, the pKa came to 3.09.
The same measure, in the same setting: the figure for `Cn1cnc2ccccc21` is 5.65; for `C1CNCCSCCNC1` it is 12.
In the case of `Oc1c(Br)cccc1Br`, the pKa (acidic group) worked out at 6.6.
In turn, `CN(C)c1ccccc1C(=O)[O-]` had a pKa (basic group) of 8.46.
Same read-out and setting: the figure for `Cc1cccc(CO)n1` is 5.2.
In turn, `[O-]c1cccc2c1-c1cccc(O)c1-2` came in with a pKa (acidic group) of 9.97.
As for `Cc1cncc(C)c1`, the pKa (basic group) is 6.15.
On to `N#Cc1ccc(-c2nnn[nH]2)cc1`, for which the pKa (acidic group) was found to be 3.53.
`CN(C)CCCC(=O)Oc1ccc([N+](=O)[O-])cc1`: the pKa (basic group) amounted to 9.6.
Compound `N[C@H]1CCCC[C@@H]1C(=O)[O-]` displayed a pKa (basic group) of 10.1.
Still for that read-out and setting: the figure for `Nc1ccnc([S-])n1` is 10.6.
Same read-out and setting: the figure for `CNC(N)=O` is 0.8.
In the case of `Nc1nc2c(ncn2[C@@H]2C[C@@H](O)[C@H](CO)O2)c(O)[nH+]1`, the pKa (acidic group) is -0.97.
The same measure, in the same setting: the figure for `Oc1ccccc1-c1ccccc1O` is 7.5; for `O=C(O)C(c1ccc(-c2ccccc2)cc1)C(O)C1CCCCC1` (stereo unspecified) it is 4.19.
In turn, `Cc1ccccc1C(=NCCC[NH+](C)C)c1ccccc1C` registered a pKa (basic group) of 4.3.
Take `CC(O)C(C(=O)O)c1ccc(-c2ccccc2)cc1` (stereo unspecified): the pKa (acidic group) is 4.3.
Still for that read-out and setting: the figure for `Cc1nnc([N-]S(=O)(=O)c2ccc(O)cc2)s1` is 8.81.
Turning to `CCOC(=O)Nc1ncnc2nc[nH]c12`, the pKa came to 9.63 (acidic group) and 2.4 (basic group).
In turn, `C1CCCNCCCCCCNCC1` displayed a pKa (basic group) of 9.6.
The same measure, in the same setting: under `Cc1cnc([O-])nc1N` stands 12.4.
Still for that read-out and setting: the figure for `Cc1cc(=O)n(C)cn1` is 2.1; for `c1c[nH+]ccn1` it is -5.55.
Same read-out and setting: the figure for `CC1CN2CCC1CC2` (stereo unspecified) is 11.3; for `OC(CN1CCOCC1)CN1CCOCC1` it is 6.98; for `CCN(O)CC` it is 5.62.
On to `Cc1cc(C)n(C)n1`, for which, where the note is “basic group”, the pKa amounted to 3.96.
The same measure, in the same setting: under `Cc1ccc([N+](=O)[O-])c2c(NCCC[NH+](C)C)cc(-c3ccccc3)nc12` stands 5.43.
In turn, `CCCc1c(C)[nH]n(C2CC[NH+](C)CC2)c1=O` returned a pKa (acidic group) of 7.18.
The same measure, in the same setting: under `O=C([O-])/C=N/O` stands 10.2; under `CCCCc1c(C)nn(-c2ccccc2)c1O`, 11.4; under `C/C(O)=C/C(=O)O`, 4.05.
On the same count and under the same terms, under `CC(=S)NCc1ccccc1` stands 13; under `O=C(O)c1c(Br)cccc1[N+](=O)[O-]`, 1.37.
For the setting “basic group”, `Ic1cccc(C2NCCS2)c1` (stereo unspecified) displayed a pKa of 4.93.
The same measure, in the same setting: the figure for `C(=C\c1nnnn1-c1ccccc1)/c1ccccc1` is -2.3.
With `N#CC(CC(=O)O)Cc1ccccc1` (stereo unspecified), for the setting “acidic group”, the pKa was found to be 3.91.
For the compound `CN1C[C@H](C(=O)[O-])C[C@@]2(O)c3cccc4[nH]cc(c34)C[C@H]12`, under “basic group”, the pKa turned out to be 9.17.
Still for that read-out and setting: under `CCOCCn1c(CN2CC[NH+](CCCCn3cc(C(=O)O)cn3)CC2)nc2ccccc21` stands 4.9; under `Cc1c(O)c(=O)n(-c2ccccc2)n1C`, -0.22.
Regarding `COc1ccc2cc(O)ccc2c1`, the pKa (acidic group) was 9.64.
For the setting “basic group”, `CCOC(=O)C(C)N` (stereo unspecified) returned a pKa of 7.8.
Take `Cn1cccc1-c1cccnc1`: the pKa (basic group) was 4.73.
On the same count and under the same terms, the figure for `NC1=[NH+][C@@H](CC(=O)[O-])C(=O)N1CCCC(N)C(=O)[O-]` (stereo partly specified) is 8.1; for `Nc1cccc2nnn([C@@H]3C[C@@H](O)[C@H](CO)O3)c12` it is 1.8.
In turn, `C[NH+]1CCCC1c1cccnc1` (stereo unspecified) returned a pKa (basic group) of 3.01.
Regarding `COc1cc2ccccc2cc1C(=O)O`, the pKa (acidic group) was 3.82.
For `Cc1cc(C)cc(N)c1`, the pKa (basic group) came to 4.81.
On the same count and under the same terms, the figure for `Cc1c(Cn2ccnc2)sc2ccc(C(=O)[O-])cc12` is 6.58; for `O=C([O-])c1ccc2ncccc2c1` it is 4.82; for `CC(C)CN(CC(C)O)CC(C)O` (stereo unspecified) it is 8.8.
Regarding `Nc1n[nH]c(N)c1/N=N/c1ccccc1O`, the pKa reads like this: (acidic group) 8.22; (basic group) 3.51.
In turn, `NC(=S)C1(N)CCCCC1` showed a pKa (basic group) of 7.23.
Take `O=C1CC(=O)NC(=S)N1`: the pKa (acidic group) worked out at 4.15.
For the compound `CN(C)CC[Se-]`, the pKa (basic group) is 10.8.
As for `CC(=O)Nc1nnc(-c2ccccc2)s1`, the pKa (acidic group) was 8.9.
`Nc1nc2c(ncn2[C@@H]2C=C[C@H](CO)C2)c(O)[nH+]1`: the pKa (acidic group) came out at 3.15.
Regarding `O=C([O-])[C@@H]1C[C@@H](O)CN1`, the pKa (basic group) is 9.64.
As for `[NH3+]c1ccccc1O[C@H]1O[C@@H](C(=O)O)[C@H](O)[C@@H](O)[C@@H]1O`, the pKa (acidic group) came to 3.3.
Take `CC(C)(C(=O)[O-])c1c[nH]c(CO)n1`: the pKa (basic group) was 7.38.
On the same count and under the same terms, under `CC(C)NCCCCCC[NH2+]C(C)C` stands 10.9; under `CC1ONCc2ccccc21` (stereo unspecified), 3.6.
`CCC(C)(CC)Nc1ccccc1` gave a pKa (basic group) of 6.32.
The same measure, in the same setting: the figure for `CCCSCCN` is 9.43.
For the setting “acidic group”, `Oc1[nH+]cnc2ccccc12` yielded a pKa of 2.12.
With `Nc1nnn[nH]1`, the pKa is, setting by setting: (acidic group) 5.98; (basic group) 1.81.
For `CCCNC(C)C(=O)Nc1ccccc1C` (stereo unspecified), where the note is “basic group”, the pKa is 7.32.
Compound `CC(C)(C)OC(=O)NC(CCC(N)=O)C(=O)O` (stereo unspecified) had a pKa (acidic group) of 3.66.
Under “basic group”, `CCN(CC)CCN=C(c1ccccc1C)c1ccccc1C` gave a pKa of 8.8.
On to `Cc1cc(C(CC(=O)O)c2ccccc2)ccc1O` (stereo unspecified), for which, where the note is “acidic group”, the pKa is 4.67.
Still for that read-out and setting: the figure for `CCCCCCCCCCc1c(-c2ccccc2)nn(-c2ccccc2)c1O` is 6.7.
Compound `[O-]c1nc([O-])c2[nH]nnc2n1` showed a pKa (basic group) of 9.3.
As to `O=S(Cc1ccccc1)c1ncn[nH]1` (stereo unspecified), for the setting “acidic group”, the pKa was 7.38.
In turn, `CC1CCNC(C)(C)C1` (stereo unspecified) showed a pKa (basic group) of 11.1.
On the same count and under the same terms, under `[O-]c1ccncc1Br` stands 9.4.
Where the note is “acidic group”, `Brc1cccc(-c2nnn[nH]2)c1` yielded a pKa of 3.82.
In the case of `CCCCCCCC(=O)NO`, where the note is “acidic group”, the pKa amounted to 9.19.
Regarding `Cc1cc(N)ccc1CN`, the pKa (basic group) came to 9.77.
For `CCOC(=O)c1ccc(CCN)cc1`, the pKa (basic group) stood at 9.58.
As to `O=C(Oc1cccc([N+](=O)[O-])c1)C1c2ccccc2-c2ccccc21`, the pKa (acidic group) was found to be 9.84.
`O=Cc1cccc(O)c1`: the pKa (acidic group) worked out at 8.86.
`CCc1ncc[nH]1`: the pKa (basic group) amounted to 8.05.
With `CNC(=O)Oc1ccc2c(c1)[C@@]1(C)CC[NH+](C)[C@H]1N2C`, the pKa (acidic group) was determined as 6.12.

The values above are taken from the pKa sets of Baltruschat and Czodrowski (2020).
